Data reported in ChEMBL document CHEMBL1157372, “gyrA and parC Mutations and associated quinolone resistance in Vibrio anguillarum serotype O2b strains isolated from farmed Atlantic cod (Gadus morhua) in Norway” (2007).
Converted amounts (≈) assume the structure as drawn.

Tests used:
Type in all cases: functional
Vibrio anguillarum [1] = assay: Antimicrobial activity against Vibrio anguillarum serotype O2b 04/09/363-5034 isolate containing gyrA and parC quinolone resistance mutations from Atlantic cod after 5 days by microplate broth dilution method; details: 120 h
Vibrio anguillarum [2] = assay: Antimicrobial activity against Vibrio anguillarum serotype O2b 04/09/367-5043 isolate containing gyrA position 83 Ser-Ile substitution mutation from Atlantic cod after 5 days by microplate broth dilution method; details: 120 h
Vibrio anguillarum [3] = assay: Antimicrobial activity against Vibrio anguillarum serotype O2b 04/09/494-5106 isolate containing parC position 83 Ser-Ile substitution mutation from Atlantic cod after 5 days by microplate broth dilution method; details: 120 h
Vibrio anguillarum [4] = assay: Antimicrobial activity against Vibrio anguillarum serotype O2b 04/09/367-5042 isolate containing gyrA and parC quinolone resistance mutations from Atlantic cod after 5 days by microplate broth dilution method; details: 120 h
Vibrio anguillarum [5] = assay: Antimicrobial activity against Vibrio anguillarum serotype O2b 04/09/363-5036 isolate containing gyrA and parC quinolone resistance mutations from Atlantic cod after 5 days by microplate broth dilution method; details: 120 h
Vibrio anguillarum [6] = assay: Antimicrobial activity against Vibrio anguillarum serotype O2b 04/09/422-5063 isolate containing gyrA and parC quinolone resistance mutations from Atlantic cod after 5 days by microplate broth dilution method; details: 120 h
Vibrio anguillarum [7] = assay: Antimicrobial activity against Vibrio anguillarum serotype O2b 04/09/363-5034 isolate containing gyrA and parC quinolone resistance mutations from Atlantic cod at 30 ug by disc diffusion assay; details: read-out: IZ
Vibrio anguillarum [8] = assay: Antimicrobial activity against Vibrio anguillarum serotype O2b 04/09/422-5063 isolate containing gyrA and parC quinolone resistance mutations from Atlantic cod at 30 ug by disc diffusion assay; details: read-out: IZ
Vibrio anguillarum [9] = assay: Antimicrobial activity against Vibrio anguillarum serotype O2b 04/09/367-5043 isolate containing gyrA position 83 Ser-Ile substitution mutation from Atlantic cod at 30 ug by disc diffusion assay; details: read-out: IZ
Vibrio anguillarum [10] = assay: Antimicrobial activity against Vibrio anguillarum BAF33487 containing parC position 90 Glu-Gly substitution mutation
Vibrio anguillarum [11] = assay: Antimicrobial activity against Vibrio anguillarum serotype O2b 04/09/363-5036 isolate containing gyrA and parC quinolone resistance mutations from Atlantic cod at 30 ug by disc diffusion assay; details: read-out: IZ
Vibrio anguillarum [12] = assay: Antimicrobial activity against Vibrio anguillarum serotype O2b 04/09/367-5042 isolate containing gyrA and parC quinolone resistance mutations from Atlantic cod at 30 ug by disc diffusion assay; details: read-out: IZ
Vibrio anguillarum [13] = assay: Antimicrobial activity against Vibrio anguillarum serotype O2b 04/09/494-5106 isolate containing parC position 83 Ser-Ile substitution mutation from Atlantic cod at 30 ug by disc diffusion assay; details: read-out: IZ

For `CCn1cc(C(=O)O)c(=O)c2ccc(C)nc21` [NALIDIXIC ACID], the MIC (Vibrio anguillarum [1]) was ≤ 1 µg/mL, the MIC (Vibrio anguillarum [2]) was 8 µg/mL (≈ 34.4 µM) and the MIC (Vibrio anguillarum [3]) was > 128 µg/mL. The MIC (Vibrio anguillarum [4]) was 16 µg/mL (≈ 68.9 µM), the MIC (Vibrio anguillarum [5]) was ≤ 1 µg/mL and the MIC (Vibrio anguillarum [6]) was 16 µg/mL (≈ 68.9 µM).

`CCn1cc(C(=O)O)c(=O)c2cc3c(cc21)OCO3` [OXOLINIC ACID] was tested, and the zone of inhibition at 30 µg/disc (Vibrio anguillarum [7]) was 49 mm, the zone of inhibition at 30 µg/disc (Vibrio anguillarum [8]) was 30 mm and the zone of inhibition at 30 µg/disc (Vibrio anguillarum [9]) was 28 mm. The MIC (Vibrio anguillarum [10]) was 6.25 µg/mL (≈ 23.9 µM), the MIC (Vibrio anguillarum [2]) was 0.06 µg/mL (≈ 0.23 µM) and the zone of inhibition at 30 µg/disc (Vibrio anguillarum [11]) was 47 mm. For the same compound, the MIC (Vibrio anguillarum [3]) was 16 µg/mL (≈ 61.2 µM), the zone of inhibition at 30 µg/disc (Vibrio anguillarum [12]) was 27 mm and the MIC (Vibrio anguillarum [4]) was 0.06 µg/mL (≈ 0.23 µM). For the same compound, the MIC (Vibrio anguillarum [5]) was ≤ 0.0001 µg/mL, the MIC (Vibrio anguillarum [6]) was 0.06 µg/mL (≈ 0.23 µM) and the zone of inhibition at 30 µg/disc (Vibrio anguillarum [13]) was 0 mm.

`CCN1CCN(c2cc3c(cc2F)c(=O)c(C(=O)O)cn3C2CC2)CC1` [ENROFLOXACIN] was tested, and the MIC (Vibrio anguillarum [1]) was ≤ 0.03 µg/mL, the MIC (Vibrio anguillarum [2]) was 0.25 µg/mL (≈ 0.696 µM) and the MIC (Vibrio anguillarum [3]) was 1 µg/mL (≈ 2.78 µM). For the same compound, the MIC (Vibrio anguillarum [4]) was 0.25 µg/mL (≈ 0.696 µM), the MIC (Vibrio anguillarum [5]) was ≤ 0.03 µg/mL and the MIC (Vibrio anguillarum [6]) was 0.5 µg/mL (≈ 1.39 µM).

Work on `CC1CCc2cc(F)cc3c(=O)c(C(=O)O)cn1c23` (stereo not given) [FLUMEQUINE] yielded a zone of inhibition at 30 µg/disc (Vibrio anguillarum [7]) of 54 mm, a zone of inhibition at 30 µg/disc (Vibrio anguillarum [8]) of 37 mm and a zone of inhibition at 30 µg/disc (Vibrio anguillarum [9]) of 37 mm. It also gave a zone of inhibition at 30 µg/disc (Vibrio anguillarum [11]) of 52 mm, a zone of inhibition at 30 µg/disc (Vibrio anguillarum [12]) of 36 mm and a zone of inhibition at 30 µg/disc (Vibrio anguillarum [13]) of 17 mm.
